According to paper PMC11071649, “Synthesis and Selective Anticancer Activity Evaluation of 2-phenylacrylonitrile Derivatives as Tubulin Inhibitors” (Current Medicinal Chemistry, 2024):
Like-named read-outs stand apart in the source and are kept apart here.

Experiments:
MGC-803 cancer cells = test system: MGC-803 cancer cells; design: method as in PMID 29516624, PMID 30244610; settings: Fig. 1; cited from earlier work
L-02 normal cells = test system: L-02 normal cells; design: method as in PMID 27887843, PMID 29516624, PMID 30244610; settings: Fig. 1; cited from earlier work
MCF-7 breast cancer cell = assay: MTT anti-proliferative assay, MCF-7; format: cell-based, human; settings: MTT, 48 h
Procedure, shortened: (§1)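 Anti-proliferative effect is measured with the MTT assay, which reports inhibition of net cell growth. Cells come from ATCC, are maintained in DMEM with FBS and are seeded into 96-well plates before treatment.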

HepG2 hepatoma cell = assay: MTT anti-proliferative assay, HepG2; format: cell-based, human; settings: MTT, 48 h; read-out: IC50 HepG-2
Procedure, shortened: as §1

[1] = test system: MCF-10A normal breast cell; assay: MTT assay, MCF-10A normal cells; format: cell-based, human; settings: 48 h
Procedure, shortened: as §1

L-02 normal liver cell = assay: MTT assay, L-02 normal cells; format: cell-based, human; settings: 48 h
Procedure, shortened: as §1

[2] = test system: SGC-7901 early differentiation gastric cancer cell; assay: MTT anti-proliferative assay, SGC-7901; format: cell-based, human; settings: MTT, 48 h
Procedure, shortened: as §1

[3] = test system: MGC-803 late stage differentiation gastric cancer cell; assay: MTT anti-proliferative assay, MGC-803; format: cell-based, human; settings: for IC50: MTT, 48 h
Procedure, shortened: as §1

[4] = test system: Raji B lymphoblastoid cell; assay: MTT anti-proliferative assay, Raji; format: cell-based, human
Procedure, shortened: as §1

AGS gastric cancer cell = assay: MTT anti-proliferative assay, AGS; format: cell-based, human; settings: for IC50: MTT, 48 h
Procedure, shortened: as §1

[5] = test system: HCT116 colectal cancer cell; assay: MTT anti-proliferative assay, HCT116; format: cell-based, human; settings: for IC50: MTT, 48 h, read-out: IC50 HCT-116
Procedure, shortened: as §1

[6] = test system: diffuse large B-cell lymphoma SU-DHL-10 cell; assay: MTT anti-proliferative assay, SU-DHL-10; format: cell-based, human
Procedure, shortened: as §1

A549 lung cancer cell = assay: MTT anti-proliferative assay, A549; format: cell-based, human; settings: MTT, 48 h
Procedure, shortened: as §1

[7] = test system: HeLa cervical cancer cell; assay: MTT anti-proliferative assay, HeLa; format: cell-based, human; settings: MTT, 48 h
Procedure, shortened: as §1

[8] = test system: BEL-7402 liver cancer cell; assay: MTT anti-proliferative assay, BEL-7402; format: cell-based, human; settings: for IC50: MTT, 48 h
Procedure, shortened: as §1

[9] = MTT, 48 h, read-out: IC50 SU-DHL-10

SMILES | IC50 (MCF-7 breast cancer cell) | IC50 (HepG2 hepatoma cell) | IC50 [1] | IC50 (L-02 normal liver cell) | IC50 [2] | IC50 [3] | IC50 ([4]; MTT, 48 h, read-out: IC50 Raji) | IC50 (AGS gastric cancer cell) | IC50 [5] | IC50 [6, 9] | IC50 (A549 lung cancer cell) | IC50 [7] | IC50 [8] | other results
COc1cc(/C(C#N)=C/c2ccc(C)cc2)cc(OC)c1OC [Compound 1, (Z)-3-(p-tolyl)-2-(3,4,5-trimethoxyphenyl)acrylonitrile] | – | – | – | – | – | – | – | – | – | – | – | – | – | IC50 (MGC-803 cancer cells): < 0.01 µM; IC50 (L-02 normal cells): > 100 µM
N#C/C(=C\c1ccc(Oc2ccccc2)cc1)c1ccc(C(F)(F)F)cc1 [Compound 1f2v] | > 100 µM | > 100 µM | > 100 µM | > 100 µM | > 100 µM | > 100 µM | > 100 µM | > 100 µM | > 100 µM | > 100 µM | > 100 µM | > 100 µM | > 100 µM | –
N#C/C(=C\c1ccc(/C=C(\C#N)c2ccc(C(F)(F)F)cc2)cc1)c1ccc(C(F)(F)F)cc1 [Compound 1f2w] | > 100 µM | > 100 µM | > 100 µM | > 100 µM | > 100 µM | > 100 µM | – | > 100 µM | > 100 µM | – | > 100 µM | > 100 µM | > 100 µM | SI (selectivity index), IC50 (L-02)/IC50 (Raji) [4]: > 2083; IC50 ([4]; read-out: IC50 Raji cells): 0.048 µM; SI (selectivity index), IC50 (L-02)/IC50 (SU-DHL-10) [6]: > 4545; IC50 ([6]; read-out: IC50 SU-DHL-10 cells): 0.022 µM
N#C/C(=C\c1ccco1)c1ccc(C(F)(F)F)cc1 [Compound 1f3a] | > 100 µM | > 100 µM | > 100 µM | > 100 µM | > 100 µM | > 100 µM | > 100 µM | > 100 µM | > 100 µM | > 100 µM | > 100 µM | > 100 µM | > 100 µM | –
N#C/C(=C\c1cccs1)c1ccc(C(F)(F)F)cc1 [Compound 1f3b] | > 100 µM | > 100 µM | > 100 µM | > 100 µM | > 100 µM | > 100 µM | > 100 µM | 65 ± 17.9 µM | > 100 µM | > 100 µM | > 100 µM | > 100 µM | > 100 µM | SI (selectivity index), IC50 (L-02)/IC50 (AGS) (AGS gastric cancer cell): > 1.5
N#C/C(=C\c1ccccn1)c1ccc(C(F)(F)F)cc1 [Compound 1f3c] | > 100 µM | > 100 µM | > 100 µM | > 100 µM | > 100 µM | > 100 µM | > 100 µM | > 100 µM | 87.6 ± 9.1 µM | > 100 µM | > 100 µM | > 100 µM | > 100 µM | SI (selectivity index), IC50 (L-02)/IC50 (HCT-116) [5]: > 1.1
N#C/C(=C\c1cccc2ccccc12)c1ccc(C(F)(F)F)cc1 [Compound 1f3d] | > 100 µM | > 100 µM | > 100 µM | > 100 µM | > 100 µM | > 100 µM | > 100 µM | > 100 µM | > 100 µM | > 100 µM | > 100 µM | > 100 µM | > 100 µM | –
CCN(CC)c1ccc(/C=C(\C#N)c2cc(OC)c(OC)c(OC)c2)cc1 [Compound 1g2b] | 0.45 ± 0.06 µM | > 100 µM | 0.05 ± 0.001 µM | > 100 µM | > 100 µM | 0.12 ± 0.03 µM | 0.37 ± 0.06 µM | 7.5 ± 0.4 µM | 1 ± 0.1 µM | 2.4 ± 0.1 µM | > 100 µM | > 100 µM | 0.03 ± 0.01 µM | SI (selectivity index), IC50 (L-02)/IC50 (MGC-803) [3]: > 819; SI (selectivity index), IC50 (L-02)/IC50 (Raji) [4]: > 270; SI (selectivity index), IC50 (L-02)/IC50 (AGS) (AGS gastric cancer cell): > 13.1; SI (selectivity index), IC50 (L-02)/IC50 (HCT-116) [5]: > 96.1; SI (selectivity index), IC50 (L-02)/IC50 (SU-DHL-10) [6]: > 34.0; SI (selectivity index), IC50 (L-02)/IC50 (BEL-7402) [8]: > 3333
